Experimental data reported in PubChem BioAssay AID1918994 (Molecular Pharmacology Branch, DTP, NCI, 2023).

Test system: 292921-168-R-J2-PDC complex spheroid growth
Experiment: Anticancer human tumor 292921-168-R-J2-PDC patient-derived pancreatic carcinoma cell line growth inhibition [AhR]
Conditions: for IC50: curve of first compound; for viability, T/C: stronger effect = lower value
Method in brief: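 Spheroids combined tumor cells with HUVEC endothelial cells and human MSCs as stroma. AhR antagonists were paired with standard or investigational drugs, each dosed in half-log steps down from near clinical Cmax, or from 10 microM where Cmax was unknown.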

[1] = second compound 0.1 µM, first compound 0.0316 µM
[2] = second compound 0.1 µM, first compound 0.1 µM
[3] = second compound 0.316 µM, first compound 0.0316 µM
[4] = second compound 0.316 µM, first compound 0.1 µM
[5] = second compound 1 µM, first compound 0.0316 µM
[6] = second compound 1 µM, first compound 0.1 µM
[7] = second compound 3.16 µM, first compound 0.0316 µM
[8] = second compound 3.16 µM, first compound 0.1 µM
[9] = second compound 10 µM, first compound 0.0316 µM
[10] = second compound 10 µM, first compound 0.1 µM
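Further: spheroids exposed to compounds for seven days after three days of growth.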

## CC[C@@]1(O)C(=O)OCc2c1cc1n(c2=O)Cc2cc3c(CN(C)C)c(O)ccc3nc2-1 + Cc1ccccc1N=Nc1ccc(NC(=O)c2ccnn2C)c(C)c1
Second compound 0.1 µM
  IC50: 22.9 nM
Second compound 0.316 µM
  IC50: 18.6 nM
Second compound 1 µM
  IC50: 18.5 nM
Second compound 3.16 µM
  IC50: 13.9 nM
Second compound 10 µM
  IC50: 12.7 nM
Second compound 0.1 µM, first compound 0.000316 µM
  viability, T/C: 90.9%
Second compound 0.1 µM, first compound 0.001 µM
  viability, T/C: 90.8%
Second compound 0.1 µM, first compound 0.00316 µM
  viability, T/C: 82.5%
Second compound 0.1 µM, first compound 0.01 µM
  viability, T/C: 79.5%
[1]
  viability, T/C: 38.7%
[2]
  viability, T/C: 16.8%
Second compound 0.316 µM, first compound 0.000316 µM
  viability, T/C: 82.9%
Second compound 0.316 µM, first compound 0.001 µM
  viability, T/C: 92.5%
Second compound 0.316 µM, first compound 0.00316 µM
  viability, T/C: 81.2%
Second compound 0.316 µM, first compound 0.01 µM
  viability, T/C: 66.2%
[3]
  viability, T/C: 36.2%
[4]
  viability, T/C: 18.6%
Second compound 1 µM, first compound 0.000316 µM
  viability, T/C: 86.6%
Second compound 1 µM, first compound 0.001 µM
  viability, T/C: 88%
Second compound 1 µM, first compound 0.00316 µM
  viability, T/C: 76.9%
Second compound 1 µM, first compound 0.01 µM
  viability, T/C: 62.9%
[5]
  viability, T/C: 39.1%
[6]
  viability, T/C: 15.6%
Second compound 3.16 µM, first compound 0.000316 µM
  viability, T/C: 76%
Second compound 3.16 µM, first compound 0.001 µM
  viability, T/C: 70.4%
Second compound 3.16 µM, first compound 0.00316 µM
  viability, T/C: 67.1%
Second compound 3.16 µM, first compound 0.01 µM
  viability, T/C: 58.2%
[7]
  viability, T/C: 32.8%
[8]
  viability, T/C: 14.1%
Second compound 10 µM, first compound 0.000316 µM
  viability, T/C: 54.4%
Second compound 10 µM, first compound 0.001 µM
  viability, T/C: 61.1%
Second compound 10 µM, first compound 0.00316 µM
  viability, T/C: 52.6%
Second compound 10 µM, first compound 0.01 µM
  viability, T/C: 55.6%
[9]
  viability, T/C: 28.9%
[10]
  viability, T/C: 16.2%

## CCc1c2c(nc3ccc(O)cc13)-c1cc3c(c(=O)n1C2)COC(=O)[C@]3(O)CC + Cc1ccccc1N=Nc1ccc(NC(=O)c2ccnn2C)c(C)c1
Second compound 0.1 µM
  IC50: 3.86 nM
Second compound 0.316 µM
  IC50: 3.56 nM
Second compound 1 µM
  IC50: 3.34 nM
Second compound 3.16 µM
  IC50: 1.37 nM
Second compound 10 µM
  IC50: < 0.949 nM
Second compound 0.1 µM, first compound 0.000949 µM
  viability, T/C: 78.2%
Second compound 0.1 µM, first compound 0.003 µM
  viability, T/C: 58.5%
Second compound 0.1 µM, first compound 0.00949 µM
  viability, T/C: 20%
Second compound 0.1 µM, first compound 0.03 µM
  viability, T/C: 7.99%
Second compound 0.1 µM, first compound 0.0949 µM
  viability, T/C: 5.02%
Second compound 0.1 µM, first compound 0.3 µM
  viability, T/C: 2.76%
Second compound 0.316 µM, first compound 0.000949 µM
  viability, T/C: 68.3%
Second compound 0.316 µM, first compound 0.003 µM
  viability, T/C: 55.9%
Second compound 0.316 µM, first compound 0.00949 µM
  viability, T/C: 17.3%
Second compound 0.316 µM, first compound 0.03 µM
  viability, T/C: 8.17%
Second compound 0.316 µM, first compound 0.0949 µM
  viability, T/C: 3.89%
Second compound 0.316 µM, first compound 0.3 µM
  viability, T/C: 3.58%
Second compound 1 µM, first compound 0.000949 µM
  viability, T/C: 68.6%
Second compound 1 µM, first compound 0.003 µM
  viability, T/C: 53.6%
Second compound 1 µM, first compound 0.00949 µM
  viability, T/C: 18.9%
Second compound 1 µM, first compound 0.03 µM
  viability, T/C: 9.76%
Second compound 1 µM, first compound 0.0949 µM
  viability, T/C: 5.35%
Second compound 1 µM, first compound 0.3 µM
  viability, T/C: 2.94%
Second compound 3.16 µM, first compound 0.000949 µM
  viability, T/C: 54.4%
Second compound 3.16 µM, first compound 0.003 µM
  viability, T/C: 40.6%
Second compound 3.16 µM, first compound 0.00949 µM
  viability, T/C: 16%
Second compound 3.16 µM, first compound 0.03 µM
  viability, T/C: 9.67%
Second compound 3.16 µM, first compound 0.0949 µM
  viability, T/C: 5.09%
Second compound 3.16 µM, first compound 0.3 µM
  viability, T/C: 3.01%
Second compound 10 µM, first compound 0.000949 µM
  viability, T/C: 47.4%
Second compound 10 µM, first compound 0.003 µM
  viability, T/C: 40.9%
Second compound 10 µM, first compound 0.00949 µM
  viability, T/C: 17.5%
Second compound 10 µM, first compound 0.03 µM
  viability, T/C: 10.8%
Second compound 10 µM, first compound 0.0949 µM
  viability, T/C: 5.21%
Second compound 10 µM, first compound 0.3 µM
  viability, T/C: 3.01%

## Nc1ccn(C2OC(CO)C(O)C2(F)F)c(=O)n1 (stereo not given) + Cc1ccccc1N=Nc1ccc(NC(=O)c2ccnn2C)c(C)c1
Second compound 0.1 µM
  IC50: < 31.6 nM
Second compound 0.316 µM
  IC50: < 31.6 nM
Second compound 1 µM
  IC50: < 31.6 nM
Second compound 3.16 µM
  IC50: < 31.6 nM
Second compound 10 µM
  IC50: < 31.6 nM
[1]
  viability, T/C: 8.08%
[2]
  viability, T/C: 7.37%
Second compound 0.1 µM, first compound 0.316 µM
  viability, T/C: 8.63%
Second compound 0.1 µM, first compound 1 µM
  viability, T/C: 7.79%
Second compound 0.1 µM, first compound 3.16 µM
  viability, T/C: 8.32%
Second compound 0.1 µM, first compound 10 µM
  viability, T/C: 6.76%
[3]
  viability, T/C: 8.99%
[4]
  viability, T/C: 7.65%
Second compound 0.316 µM, first compound 0.316 µM
  viability, T/C: 8.65%
Second compound 0.316 µM, first compound 1 µM
  viability, T/C: 8.07%
Second compound 0.316 µM, first compound 3.16 µM
  viability, T/C: 8.01%
Second compound 0.316 µM, first compound 10 µM
  viability, T/C: 7.23%
[5]
  viability, T/C: 8.29%
[6]
  viability, T/C: 8.55%
Second compound 1 µM, first compound 0.316 µM
  viability, T/C: 9.53%
Second compound 1 µM, first compound 1 µM
  viability, T/C: 8.8%
Second compound 1 µM, first compound 3.16 µM
  viability, T/C: 11.7%
Second compound 1 µM, first compound 10 µM
  viability, T/C: 7.88%
[7]
  viability, T/C: 8.95%
[8]
  viability, T/C: 7.07%
Second compound 3.16 µM, first compound 0.316 µM
  viability, T/C: 7.3%
Second compound 3.16 µM, first compound 1 µM
  viability, T/C: 10.1%
Second compound 3.16 µM, first compound 3.16 µM
  viability, T/C: 8.53%
Second compound 3.16 µM, first compound 10 µM
  viability, T/C: 5.4%
[9]
  viability, T/C: 8.79%
[10]
  viability, T/C: 9.42%
Second compound 10 µM, first compound 0.316 µM
  viability, T/C: 7.46%
Second compound 10 µM, first compound 1 µM
  viability, T/C: 10.9%
Second compound 10 µM, first compound 3.16 µM
  viability, T/C: 9.28%
Second compound 10 µM, first compound 10 µM
  viability, T/C: 6.09%
